Columns and labels:
Experiment in all cases: relative viability (nuclei count vs DMSO), 5 days (fraction); higher = more cells survive
EKVX = tested on: EKVX
How it was run: (§1)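 Nuclei were stained with Hoechst during a one-step fixation (final 0.05% Triton X-100, 1% formaldehyde, 1 ug/ml Hoechst) carried out 5 days after dosing, then counted on 4× images. The cells, lung cancer lines in 1536-well plates, had been dosed by pin tool the day after seeding with one drug alone or a fixed anchor-drug dose plus five library-drug doses (not always all listed) in √10 steps. Relative viability is the nuclei count in treated wells divided by that in vehicle wells, and each value is the median of duplicate plates.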

A549 = tested on: A549
How it was run: as §1

HCC-44 = tested on: HCC-44
How it was run: as §1

NCI-H1648 = tested on: NCI-H1648
How it was run: as §1

NCI-H2085 = tested on: NCI-H2085
How it was run: as §1

NCI-H1993 = tested on: NCI-H1993
How it was run: as §1

RERF-LC-KJ = tested on: RERF-LC-KJ
How it was run: as §1

NCI-H2126 = tested on: NCI-H2126
How it was run: as §1

ABC-1 = tested on: ABC-1
How it was run: as §1

## O=c1cc(N2CCOCC2)oc2c(-c3cccc4c3sc3ccccc34)cccc12 + Nc1ncn([C@H]2C[C@H](O)[C@@H](CO)O2)c(=O)n1 [Decitabine] (partner 2 µM)
EKVX; first compound 0.01 µM
  relative viability: 0.355
EKVX; first compound 0.03162 µM
  relative viability: 0.321
EKVX; first compound 0.1 µM
  relative viability: 0.37
EKVX; first compound 0.3162 µM
  relative viability: 0.282
EKVX; first compound 1 µM
  relative viability: 0.336
A549; first compound 0.01 µM
  relative viability: 0.26
A549; first compound 0.03162 µM
  relative viability: 0.242
A549; first compound 0.1 µM
  relative viability: 0.189
A549; first compound 0.3162 µM
  relative viability: 0.246
A549; first compound 1 µM
  relative viability: 0.288
HCC-44; first compound 0.01 µM
  relative viability: 0.962
HCC-44; first compound 0.03162 µM
  relative viability: 0.993
HCC-44; first compound 0.1 µM
  relative viability: 0.97
HCC-44; first compound 0.3162 µM
  relative viability: 0.96
HCC-44; first compound 1 µM
  relative viability: 0.986
NCI-H1648; first compound 0.03162 µM
  relative viability: 0.594
NCI-H1648; first compound 0.1 µM
  relative viability: 0.496
NCI-H1648; first compound 0.3162 µM
  relative viability: 0.466
NCI-H1648; first compound 1 µM
  relative viability: 0.458
NCI-H2085; first compound 0.01 µM
  relative viability: 0.591
NCI-H2085; first compound 0.03162 µM
  relative viability: 0.519
NCI-H2085; first compound 0.1 µM
  relative viability: 0.526
NCI-H2085; first compound 0.3162 µM
  relative viability: 0.614
NCI-H2085; first compound 1 µM
  relative viability: 0.502
NCI-H1993; first compound 0.01 µM
  relative viability: 0.731
NCI-H1993; first compound 0.03162 µM
  relative viability: 0.639
NCI-H1993; first compound 0.1 µM
  relative viability: 0.569
NCI-H1993; first compound 0.3162 µM
  relative viability: 0.575
NCI-H1993; first compound 1 µM
  relative viability: 0.585
RERF-LC-KJ; first compound 0.01 µM
  relative viability: 0.746
RERF-LC-KJ; first compound 0.03162 µM
  relative viability: 0.697
RERF-LC-KJ; first compound 0.1 µM
  relative viability: 0.778
RERF-LC-KJ; first compound 0.3162 µM
  relative viability: 0.751
RERF-LC-KJ; first compound 1 µM
  relative viability: 0.712
NCI-H2126; first compound 0.01 µM
  relative viability: 0.558
NCI-H2126; first compound 0.03162 µM
  relative viability: 0.609
NCI-H2126; first compound 0.1 µM
  relative viability: 0.601
NCI-H2126; first compound 0.3162 µM
  relative viability: 0.559
NCI-H2126; first compound 1 µM
  relative viability: 0.569
ABC-1; first compound 0.01 µM
  relative viability: 1.01
ABC-1; first compound 0.03162 µM
  relative viability: 1.15
ABC-1; first compound 0.1 µM
  relative viability: 1.31
ABC-1; first compound 0.3162 µM
  relative viability: 0.959
ABC-1; first compound 1 µM
  relative viability: 1.09
